Measurements: patent publication US7601856B2 (Wyeth, priority 2006, dated 2009)
Like-named read-outs stand apart in the source and are kept apart here.

Legend:
[1] = system: isolated rat bladder strips; experiment: Inhibition of contractions of isolated rat bladder strips; conditions: for IC50: 0.5 h; for inhibition at 30 µM: maximum percentage inhibition of contractile activity, read-out: % Inhibition of Contractility @ 30 μM
Experimental: The compounds of the examples were tested to determine their ability to inhibit contractions of isolated rat bladder strips. See Foster, C. […] Malmgren, A. et al. J.Urol.
Male Sprague-Dawley rats (150-200 g) were obtained from ACE animal suppliers. Animals were allowed free access to food and water.
Animals were euthanized by CO2 asphyxiation followed by a bilateral thoracotomy. […] The bladder was opened and then cut into strips 1-2 mm in width and 7-10 mm in length. The strips were subsequently suspended in a 10 ml tissue bath under an initial resting tension of 1.5 g. The strips were held in place by two surgical clips one of which was attached to a fixed hook while the other was attached to an isometric force transducer. […] The carbachol was then washed out and the tissue allowed to relax to its resting level of activity. Following a further 30 minute period of recovery an additional 15 mM KCl were introduced into the tissue bath. […] Following stabilization of this enhanced level of contractile activity, incremental increases in the concentration of test compound or vehicle were introduced into the tissue bath. Contractile activity was measured for each compound or vehicle concentration during the last minute of a 30 minute challenge.
Isometric force developed by the bladder strips was measured using a force transducer and recorded on a polygraph. Contractile activity was assessed by measuring either the average amplitude of the contractions (baseline to peak force) occurring during a one minute period or, preferably, by integrating the contractile activity with respect to time (one minute measuring period).
The percentage inhibition of contractile activity evoked by each concentration of a given test compounds was used to generate a concentration-response curve.

[2] = concentration eliciting 50% inhibition of pre-drug contractile activity, strips stimulated with additional 15 mM KCl, 30 minute challenge per concentration, read-out: IC50
[3] = strips stimulated with additional 15 mM KCl

SMILES	IC50 [1, 2]	melting point	inhibition at 30 µM [1, 3]	further results
O=C(CC1CCCCC1)Nc1ccc2oc3c(c2c1)CCCC3 [Example 7, 2-CYCLOHEXYL-N-(6,7,8,9-TETRAHYDRO-DIBENZOFURAN-2-YL)-ACETAMIDE]	10000 to 15000 nM	189 to 191 °C	–	–
CC(C)(C)C(=O)Nc1ccc2oc3c(c2c1)CCC3 [Example 24, N-(2,3-DIHYDRO-1H-CYCLOPENTA(b)BENZOFURAN-7-YL)-2,2-DIMETHYL-PROPIONAMIDE]	1000 to 5000 nM	188.5 to 190 °C	–	–
CC(C)(C)CC(=O)Nc1ccc2oc3c(c2c1)CCCCCC3 [Example 62, 3,3-DIMETHYL-N-[6,7,8,9,10,11-HEXAHYDRO-BENZO[B]-CYCLOOCTA[D]FURAN-2-YL]BUTYRAMIDE]	1000 to 5000 nM	157 to 158 °C	–	–
Cc1ccccc1C(=O)Nc1ccc2oc3c(c2c1)CCCC3 [Example 12, 2-METHYL-N-(6,7,8,9-TETRAHYDRO-DIBENZOFURAN-2-YL)-BENZAMIDE]	–	209 to 210 °C	20 to 30%	–
CC(C)(C)CC(=O)Nc1ccc2oc3c(c2c1)CCCCC3 [Example 26, 3,3-DIMETHYL-N-[7,8,9,10-TETRAHYDRO-6H-Benzo[B]-CYCLOHEPTA[d]FURAN-2-YL]BUTYRAMIDE]	200 to 700 nM	182 to 183 °C	–	–
COc1ccc(C(=O)Nc2ccc3oc4c(c3c2)CCCC4)cc1 [Example 13, 4-METHOXY-N-(6,7,8,9-TETRAHYDRO-DIBENZOFURAN-2-YL)-BENZAMIDE]	–	197 to 197.5 °C	15 to 25%	–
CC(C)CC(=O)Nc1ccc2oc3c(c2c1)CCCCC3 [Example 28, 3-METHYL-N-[7,8,9,10-TETRAHYDRO-6H-Benzo[B]-Cyclohepta[D]FURAN-2-YL]BUTYRAMIDE]	1000 to 5000 nM	162 to 163 °C	–	–
O=C(Nc1ccc2oc3c(c2c1)CCCC3)c1ccc([N+](=O)[O-])cc1 [Example 15, 4-NITRO-N-(6,7,8,9-TETRAHYDRO-DIBENZOFURAN-2-YL)-BENZAMIDE]	–	279 to 280 °C	10 to 20%	–
CC(C)(C)CC(=O)Nc1ccc2oc3c(c2c1)CCCC3 [Example 3, 3,3-DIMETHYL-N-(6,7,8,9-TETRAHYDRO-DIBENZOFURAN-2-YL)-BUTYRAMIDE]	3000 to 11000 nM	164 to 165 °C	–	–
CC(C)C(=O)Nc1ccc2oc3c(c2c1)CCCC3 [Example 9, N-(6,7,8,9-TETRAHYDRO-DIBENZOFURAN-2-YL)-ISOBUTYRAMIDE]	6000 to 8000 nM	206.5 to 208 °C	–	–
Nc1ccc(C(=O)Nc2ccc3oc4c(c3c2)CCCC4)cc1 [Example 16, 4-AMINO-N-(6,7,8,9-TETRAHYDRO-DIBENZOFURAN-2-YL)-BENZAMIDE]	–	207 to 208 °C	5 to 10%	–
C[C@H](NC(=O)OCc1ccccc1)C(=O)Nc1ccc2oc3c(c2c1)CCCCC3 [Example 49, BENZYL [(1S)-1-METHYL-2-OXO-2-(7,8,9,10-TETRAHYDRO-6H-BENZO[B]CYCLOHEPTA[D]FURAN-2-YLAMINO)ETHYL]CARBAMATE]	–	–	30 to 40%	–
O=C(CCC1CCCC1)Nc1ccc2oc3c(c2c1)CCCCCC3 [Example 70, 3-CYCLOPENTYL-N-(6,7,8,9,10,11-HEXAHYDROBENZO[B]CYCLOOCTA[D]FURAN-2-YL)PROPANAMIDE]	–	–	15 to 30%	–
CCOC(=O)Nc1ccc2oc3c(c2c1)CCCCC3 [Example 85, ETHYL 7,8,9,10-TETRAHYDRO-6H-BENZO[B]CYCLOHEPTA[D]FURAN-2-YLCARBAMATE]	–	–	40 to 60%	–
O=C(CN1CCC2(CC1)OCCO2)Nc1ccc2oc3c(c2c1)CCCCC3 [Example 43, 2-(1,4-DIOXA-8-AZASPIRO[4.5]DEC-8-YL)-N-7,8,9,10-TETRAHYDRO-6H-BENZO[b]CYCLOHEPTA[D]FURAN-2-YLACETAMIDE]	–	–	–	IC50 [1]: 1000 to 3000 nM
CCCC(=O)Nc1ccc2oc3c(c2c1)CCCC3 [Example 10, N-(6,7,8,9-TETRAHYDRO-DIBENZOFURAN-2-YL)-BUTYRAMIDE]	10000 to 15000 nM	–	–	–
CCC(=O)Nc1ccc2oc3c(c2c1)CCCCC3 [Example 34, N-(7,8,9,10-TETRAHYDRO-6H-BENZO[B]CYCLOHEPTA[D]FURAN-2-YL)PROPANAMIDE]	500 to 800 nM	–	–	–
CC(C)(C)OC(=O)N[C@@H](Cc1ccncc1)C(=O)Nc1ccc2oc3c(c2c1)CCCCC3 [Example 55, TERT-BUTYL [(1S)-2-OXO-1-(PYRIDIN-4-YLMETHYL)-2-(7,8,9,10-TETRAHYDRO-6H-BENZO[B]CYCLOHEPTA[D]FURAN-2-YLAMINO)ETHYL]CARBAMATE]	7000 to 10000 nM	–	–	–
CC(C)(C)OC(=O)NCC(=O)Nc1ccc2oc3c(c2c1)CCCCC3 [Example 51, TERT-BUTYL [2-OXO-2-(7,8,9,10-TETRAHYDRO-6H-BENZO[B]CYCLOHEPTA[D]FURAN-2-YLAMINO)ETHYL]CARBAMATE]	–	–	25 to 40%	–
O=C(Nc1ccc2oc3c(c2c1)CCCCCC3)c1ccncc1 [Example 77, N-(6,7,8,9,10,11-HEXAHYDROBENZO[B]CYCLOOCTA[D]FURAN-2-YL)ISONICOTINAMIDE]	–	–	30 to 50%	–
CC(C)(C)OC(=O)N[C@@H](Cc1ccccc1)C(=O)Nc1ccc2oc3c(c2c1)CCCCC3 [Example 53, TERT-BUTYL [(1S)-1-BENZYL-2-OXO-2-(7,8,9,10-TETRAHYDRO-6H-BENZO[B]CYCLOHEPTA[D]FURAN-2-YLAMINO)ETHYL]CARBAMATE]	–	–	15 to 25%	–
CCOC(=O)CCC(=O)Nc1ccc2oc3c(c2c1)CCCCC3 [Example 32, ETHYL 4-OXO-4-(7,8,9,10-TETRAHYDRO-6H-BENZO[B]CYCLOHEPTA[D]FURAN-2-YLAMINO)BUTANOATE]	9000 to 12000 nM	–	–	–
CC(=O)Nc1ccc2oc3c(c2c1)CCCCCC3 [Example 73, N-(6,7,8,9,10,11-HEXAHYDROBENZO[B]CYCLOOCTA[D]FURAN-2-YL)ACETAMIDE]	400 to 1100 nM	–	–	–
O=C(Cc1ccncc1)Nc1ccc2oc3c(c2c1)CCCCCC3 [Example 78, N-(6,7,8,9,10,11-HEXAHYDROBENZO[B]CYCLOOCTA[D]FURAN-2-YL)-2-PYRIDIN-4-YLACETAMIDE]	–	–	–	IC50 [1]: 10000 to 14000 nM
O=C(Cc1ccc(F)cc1)Nc1ccc2oc3c(c2c1)CCCCC3 [Example 30, 2-(4-FLUOROPHENYL)-N-(7,8,9,10-TETRAHYDRO-6H-BENZO[B]CYCLOHEPTA[D]FURAN-2-YL)ACETAMIDE]	–	–	30 to 50%	–
CCCCCCC(=O)Nc1ccc2oc3c(c2c1)CCCCCC3 [Example 82, N-6,7,8,9,10,11-HEXAHYDROBENZO[B]CYCLOOCTA[D]FURAN-2-YLHEPTANAMIDE]	–	–	–	IC50 [1]: 600 to 2000 nM
C[C@H](NC(=O)[C@H](Cc1ccccc1)NC(=O)OCc1ccccc1)C(=O)Nc1ccc2oc3c(c2c1)CCCCC3 [Example 58, N-[(BENZYLOXY)CARBONYL]-L-PHENYLALANYL-N^1-7,8,9,10-TETRAHYDRO-6H-BENZO[B]CYCLOHEPTA[D]FURAN-2-YL-L-ALANINAMIDE]	–	–	30 to 40%	–
O=C(CCc1ccccc1)Nc1ccc2oc3c(c2c1)CCCCCC3 [Example 72, N-(6,7,8,9,10,11-HEXAHYDROBENZO[B]CYCLOOCTA[D]FURAN-2-YL)-3-PHENYLPROPANAMIDE]	800 to 2200 nM	–	–	–
CN(C)C(=O)Nc1ccc2oc3c(c2c1)CCCCCC3 [Example 87, N′-(6,7,8,9,10,11-HEXAHYDROBENZO[B]CYCLOOCTA[D]FURAN-2-YL)-N,N-DIMETHYLUREA]	–	–	25 to 35%	–
CCCCCC(=O)Nc1ccc2oc3c(c2c1)CCCCCC3 [Example 71, N-(6,7,8,9,10,11-HEXAHYDROBENZO[B]CYCLOOCTA[D]FURAN-2-YL)HEXANAMIDE]	200 to 1000 nM	–	–	–
